Test system: Escherichia coli
Experiment: MIC (Minimum Inhibitory Concentration) test, bacterial growth inhibition in synthetic urine (Bioscreen optical density)
Assay type: cell-based
Settings: mixed 1+3 with synthetic urine
Method: Experimental tests were conducted in order to verify the above-discussed results. In the experiments, solutions were prepared and sterilized by radiation (E-beam) or heat (autoclave). […] Further, some of the solutions were buffered to a predetermined pH-value with a citrate buffer (a buffer-system consisting of sodium citrates). All solutions were mixed with three volumetric parts synthetic urine in the experiments. Synthetic urine supports bacterial growth and were used as growth medium as well as negative control reference in the experiments. All experiments were made on the bacteria Escherichia coli, since the E. coli bacteria is normally the most relevant bacteria to inhibit for urinary catheter products. MIC (Minimum Inhibitory Concentration) tests were performed to assess the potential of a given substance and concentration to inhibit bacterial growth. The solutions were added to a growth solution containing a specified number of bacteria. The bacteria were then grown in microtiter-wells at 37 deg. C. in a Bioscreen-instrument for a period of at least 40 hours. The bacterial growth/inhibition was monitored in terms of optical density for the solution. Since all microorganisms increase the optical density of a solution during growth and multiplication, the Bioscreen measure of the transmittance/absorbance of light through the sample is correlated to the concentration of microorganisms. The results of the measurements of the different solutions are compared to a negative control reference, i.e. to synthetic urine, for each set of experiments.

[1] = 0.1% w/w, 850 mOsm, pH 6.5, no buffer
[2] = 0.3% w/w, 850 mOsm, pH 6.5, no buffer
[3] = 1.0% w/w, 850 mOsm, pH 6.5, no buffer

| SMILES | Result (index): inhibition time relative to synthetic urine [1] [index] | Result (index): inhibition time relative to synthetic urine (0.25% w/w, 860 mOsm, pH 5.0, citrate buffer) [index] | Result (index): inhibition time relative to synthetic urine (0.25% w/w, 860 mOsm, pH 5.6, citrate buffer) [index] | Result (index): inhibition time relative to synthetic urine (0.25% w/w, 860 mOsm, pH 5.9, citrate buffer) [index] | Result (index): inhibition time relative to synthetic urine (0.25% w/w, 860 mOsm, pH 6.5, no buffer) [index] | Result (index): inhibition time relative to synthetic urine [2] [index] | Result (index): inhibition time relative to synthetic urine [3] [index] | Result (index): inhibition time relative to synthetic urine (0.9% w/w, 900 mOsm, pH 6.5, no buffer) [index] | Result (index): inhibition time relative to synthetic urine (3.0% w/w, 1700 mOsm, pH 6.5, no buffer) [index] | Result (index): inhibition time relative to synthetic urine (0.05% w/w, 860 mOsm, pH 5.6, citrate buffer) [index] | Result (index): inhibition time relative to synthetic urine (0.05% w/w, 860 mOsm, pH 5.9, citrate buffer) [index] | Result (index): inhibition time relative to synthetic urine (0.05% w/w, 860 mOsm, pH 6.5, no buffer) [index] | Result (index): inhibition time relative to synthetic urine (0.05% w/w, 870 mOsm, pH 5.0, citrate buffer) [index] |
| --- | --- | --- | --- | --- | --- | --- | --- | --- | --- | --- | --- | --- | --- |
| O=C([O-])c1ccccc1.[Na+] [NaB, Sodium Benzoate] | 2.3 | >8.0 | >8.0 | >8.0 | 4.0 | 4.0 | 5.3 |  |  |  |  |  |  |
| [Cl-].[Na+] [NaCl, sodium chloride, reference compound] |  |  |  |  |  |  |  | 1.0 | 1.5 |  |  |  |  |
| C/C=C/C=C/C(=O)[O-].[K+] [KS, Potassium Sorbate] | 3.8 |  |  |  |  | 5.0 | 5.3 |  |  | 1.8 | 1.7 | 1.2 | >8.0 |

— patent publication US8747882B2, “Catheter assembly with bactericidal effect” (Astra Tech AB, priority 2005, dated 2014)
